Assay results taken from patent US9133157B2, “HIV protease inhibitors” (Merck Canada Inc., priority 2011, dated 2015).

target: WT HIV-1 protease (Human immunodeficiency virus type 1 group M subtype B (isolate HXB2) (HIV-1), UniProt P04585); test: Assay for inhibition of microbial expressed HIV protease (Procedure A, peptide substrate, HPLC fluorescence detection); assay type: biochemical; conditions: WT HIV-1 protease 10 pM, substrate 400 micromolar, pH 5.5, 30 min preincubation, 1 hour at 30° C.; read-out: Enzyme inhibition IC50
How it was run: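 E. coli-expressed enzyme preincubated 30 min at room temperature with compound in 50 mM sodium acetate pH 5.5, 100 mM NaCl, 0.1% BSA. Reaction ran 1 h at 30° C with 400 micromolar Val-Ser-Gln-Asn-(betanaphthyl)Ala-Pro-Ile-Val substrate and 10 picomolar protease. After phosphoric acid quench, product was measured by C18 HPLC with fluorescence (ex 270/em 330 nm).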

SMILES | IC50 [nM]
[2H]C([2H])([2H])C([2H])(N([C@H](CO)c1ccc([C@@H](NC(=O)[C@@H](NC(=O)OC)C(c2ccccc2)c2ccccc2)C(F)(F)F)s1)S(=O)(=O)c1ccc2ncsc2c1)C([2H])([2H])[2H] [Example 106, N-[(1S)-1-{5-[(1R)-1-{(1,3-benzothiazol-6-ylsulfonyl)[(2-^2H)propan-2-yl]amino}-2-hydroxyethyl]thiophen-2-yl}-2,2,2-trifluoroethyl]-Nα-(methoxycarbonyl)-β-phenyl-L-phenylalaninamide] | 34.7
[2H]C([2H])([2H])C([2H])(N([C@H](CO)c1ccc([C@@H](NC(=O)[C@@H](NC(=O)OC)C(c2ccccc2)c2ccccc2)C(F)(F)F)s1)S(=O)(=O)c1ccc2[nH]ncc2c1)C([2H])([2H])[2H] [Example 107, Nα-(methoxycarbonyl)-β-phenyl-N-[(1S)-2,2,2-trifluoro-1-{5-[(1R)-2-hydroxy-1-1(1H-indazol-5-ylsulfonyl)[(2-^2H)propan-2-yl]amino}ethyl]thiophen-2-yl}ethyl-L-phenylalaninamide] | 23.4
[2H]C([2H])([2H])C([2H])(N([C@H](CO)c1ccc([C@@H](NC(=O)[C@@H](NC(=O)OC)C(c2ccccc2)c2ccccc2)C(F)(F)F)s1)S(=O)(=O)c1ccc(N)cc1F)C([2H])([2H])[2H] [Example 108, N-[(1S)-1-{5-[(1R)-1-{[(4-amino-2-fluorophenyl)sulfonyl][(2-^2H)propan-2-yl]amino}-2-hydroxyethyl]thiophen-2-yl}-2,2,2-trifluoroethyl]-Nα-(methoxycarbonyl)-β-phenyl-L-phenylalaninamide] | 9.4
COC(=O)N[C@H](C(=O)N[C@H](c1ccc([C@@H](CO)N(C(C)C)S(=O)(=O)c2ccc(C(N)=O)cc2)s1)C(F)(F)F)C(c1ccccc1)c1ccccc1 [Example 109, methyl [(1S)-2-{[(1)-1-(5-{(1R)-1-[{[4-(aminocarbonyl)phenyl]sulfonyl}(isopropyl)amino]-2-hydroxyethyl}-2-thienyl)-2,2,2-trifluoroethyl]amino}-1-(diphenylmethyl)-2-oxoethyl]carbamate] | 31.5
COC(=O)N[C@H](C(=O)N[C@H](c1ccc([C@@H](CO)N(CCC(C)(C)C)S(=O)(=O)c2ccc(-n3ncnn3)cc2)s1)C(F)(F)F)C(c1ccccc1)c1ccccc1 [Example 110] | 10.5
COC(=O)N[C@H](C(=O)N[C@H](c1ccc([C@@H](CO)N(CCC(C)(C)C)S(=O)(=O)c2ccc(-n3cnnn3)cc2)s1)C(F)(F)F)C(c1ccccc1)c1ccccc1 [Example 111, N-((1S)-1-{5-[(1R)-1-((3,3-dimethylbutyl){[4-(1H-tetrazol-1-yl)phenyl]sulfonyl}amino)-2-hydroxyethyl]-2-thienyl}-2,2,2-trifluoroethyl)-Nα-(methoxycarbonyl)-β-phenyl-L-phenylalaninamide] | 19.3
COC(=O)N[C@H](C(=O)N[C@H](c1ccc([C@@H](CO)N(CCC(C)(C)C)S(=O)(=O)c2ccc(-n3nccn3)cc2)s1)C(F)(F)F)C(c1ccccc1)c1ccccc1 [Example 112] | 73.5
COC(=O)N[C@H](C(=O)N[C@H](c1ccc([C@@H](CO)N(CCC(C)(C)C)S(=O)(=O)c2ccc(-n3ccnn3)cc2)s1)C(F)(F)F)C(c1ccccc1)c1ccccc1 [Example 113] | 25.9
COC(=O)N[C@H](C(=O)N[C@H](c1ccc([C@@H](CO)N(CCC(C)(C)C)S(=O)(=O)c2ccc(-c3ccno3)cc2)s1)C(F)(F)F)C(c1ccccc1)c1ccccc1 [Example 114, N-{(1S)-1-[5-((1R)-1-{(3,3-dimethylbutyl)[(4-isoxazol-5-ylphenyl)sulfonyl]amino}-2-hydroxyethyl)-2-thienyl]-2,2,2-trifluoroethyl}-Nα-(methoxycarbonyl)-β-phenyl-L-phenylalaninamide] | 0.77
